Results taken from ChEMBL document CHEMBL1146133, “Synthesis of benz[d]indeno[1,2-b]pyran-5,11-diones: versatile intermediates for the design and synthesis of topoisomerase I inhibitors” (2006).

Tests used:
Format in all cases: functional
[1] = tested on: SF-268; assay: Antiproliferative activity against human SF268 cell line
[2] = tested on: UACC-62; assay: Antiproliferative activity against human UACC62 cell line
[3] = tested on: OVCAR-3; assay: Antiproliferative activity against human OVCAR-3 cell line
[4] = tested on: SN12C; assay: Antiproliferative activity against human SN12C cell line
[5] = tested on: DU-145; assay: Antiproliferative activity against human DU145 cell line
[6] = tested on: MDA-MB-435; assay: Antiproliferative activity against human MDA-MB-435 cell line
[7] = tested on: HOP-62; assay: Antiproliferative activity against human HOP62 cell line
[8] = tested on: HCT-116; assay: Antiproliferative activity against human HCT116 cell line

O=C1c2ccccc2-c2c1c1ccccc1c(=O)n2CCN1CCOCC1
GI50 [1]: 85100 nM

CN(C)CCCn1c2c(c3cc4c(cc3c1=O)OCO4)C(=O)c1ccccc1-2
GI50 [1]: 2690 nM
GI50 [2]: 0.3 µM
GI50 [3]: 2.63 µM
GI50 [4]: 0.023 µM
GI50 [5]: 2.04 µM
GI50 [6]: 3.02 µM
GI50 [7]: < 0.01 µM
GI50 [8]: < 0.01 µM

O=C1c2ccccc2-c2c1c1ccccc1c(=O)n2CCCn1ccnc1
GI50 [1]: 2340 nM
GI50 [2]: 0.79 µM
GI50 [3]: 1.66 µM
GI50 [4]: 1.66 µM
GI50 [5]: 1.41 µM
GI50 [7]: 2.69 µM
GI50 [8]: 1.41 µM

O=C1c2ccccc2-c2c1c1ccc([N+](=O)[O-])cc1c(=O)n2CCN1CCOCC1
GI50 [2]: 83.2 µM
GI50 [3]: > 100 µM
GI50 [4]: 58.9 µM
GI50 [5]: 61.7 µM
GI50 [6]: > 100 µM
GI50 [7]: 52.5 µM
GI50 [8]: > 100 µM

O=C1c2ccccc2-c2c1c1ccccc1c(=O)n2CCNCCO
GI50 [1]: 1650 nM

COc1cc2c3c(n(CCN4CCOCC4)c(=O)c2cc1OC)-c1ccccc1C3=O
GI50 [1]: > 100000 nM
GI50 [2]: 56.2 µM
GI50 [3]: > 100 µM
GI50 [4]: > 100 µM
GI50 [5]: > 100 µM
GI50 [6]: > 100 µM
GI50 [7]: 89.1 µM
GI50 [8]: 60.3 µM

COc1cc2c3c(oc(=O)c2cc1OC)-c1ccccc1C3=O
GI50 [1]: 100000 nM
GI50 [2]: 100 µM
GI50 [3]: 100 µM
GI50 [4]: 100 µM
GI50 [5]: 100 µM
GI50 [6]: 100 µM
GI50 [8]: 100 µM

COc1cc2c(=O)oc3c(c2c(OC)c1OC)C(=O)c1ccccc1-3
GI50 [1]: > 100000 nM
GI50 [2]: > 100 µM
GI50 [3]: > 100 µM
GI50 [4]: > 100 µM
GI50 [5]: > 100 µM
GI50 [6]: > 100 µM
GI50 [7]: 53.7 µM
GI50 [8]: > 100 µM

O=C1c2ccccc2-c2c1c1ccc([N+](=O)[O-])cc1c(=O)n2CCCn1ccnc1
GI50 [1]: 16 nM

O=C1c2ccccc2-c2oc(=O)c3cc4c(cc3c21)OCO4
GI50 [1]: > 100000 nM
GI50 [2]: 25.1 µM
GI50 [3]: > 100 µM
GI50 [4]: > 100 µM
GI50 [5]: > 100 µM
GI50 [6]: > 100 µM
GI50 [7]: 18.2 µM
GI50 [8]: 47.9 µM

CN(C)CCCn1c2c(c3ccc([N+](=O)[O-])cc3c1=O)C(=O)c1ccccc1-2
GI50 [2]: 7.08 µM
GI50 [3]: 25.7 µM
GI50 [4]: 4.17 µM
GI50 [6]: > 100 µM
GI50 [8]: 6.46 µM

COc1cc2c3c(n(CCCN(C)C)c(=O)c2cc1OC)-c1ccccc1C3=O
GI50 [1]: 6170 nM
GI50 [2]: 6.61 µM
GI50 [3]: 5.89 µM
GI50 [4]: 11 µM
GI50 [5]: 4.47 µM
GI50 [6]: 7.08 µM
GI50 [8]: 2.45 µM

O=C1c2ccccc2-c2oc(=O)c3cc([N+](=O)[O-])ccc3c21
GI50 [1]: > 100000 nM
GI50 [2]: > 100 µM
GI50 [3]: > 100 µM
GI50 [4]: > 100 µM
GI50 [5]: > 100 µM
GI50 [6]: > 100 µM
GI50 [7]: > 100 µM
GI50 [8]: > 100 µM

COc1cc2c3c(n(CCCn4ccnc4)c(=O)c2cc1OC)-c1ccccc1C3=O
GI50 [1]: < 10 nM

CC[C@@]1(O)C(=O)OCc2c1cc1n(c2=O)Cc2cc3ccccc3nc2-1 [CAMPTOTHECIN]
GI50 [1]: 10 nM
